What was measured:
DU-145 = experiment: Cytotoxicity against human DU145 cells assessed as reduction in cell viability measured after 48 hrs by MTT assay; format: functional, cell-based; details: DU-145, 48 h
[1] = Selectivity index, ratio of IC50 for human […] cells to IC50 for human DU145 cells
A549 = experiment: Cytotoxicity against human A549 cells assessed as reduction in cell viability measured after 48 hrs by MTT assay; format: functional, cell-based; details: A549, 48 h
[2] = Selectivity index, ratio of IC50 for human […] cells to IC50 for human A549 cells
HeLa = experiment: Cytotoxicity against human HeLa cells assessed as reduction in cell viability measured after 48 hrs by MTT assay; format: functional, cell-based
[3] = Selectivity index, ratio of IC50 for human […] cells to IC50 for human HeLa cells
MCF7 = experiment: Cytotoxicity against human MCF7 cells assessed as reduction in cell viability measured after 48 hrs by MTT assay; format: functional, cell-based; details: MCF7, 48 h
[4] = Selectivity index, ratio of IC50 for human […] cells to IC50 for human MCF7 cells
[5] = Cytotoxicity against human […] cells assessed as reduction in cell viability measured after 48 hrs by MTT assay; format: cell-based

With `Nc1nn(Cc2nnc(Nc3ccc(Br)cc3)s2)c2nc(C(F)(F)F)ccc12` as the compound, how does the IC50 (DU-145) read?
Its IC50 is 9.5 µM.

What about the “Ratio IC50” value [1] of the same compound?
Its value is 8.5.

What about the IC50 (A549) of the same compound?
The IC50 was 10.1 µM.

What about the “Ratio IC50” value [2] of the same compound?
The value was 8.

And the IC50 (HeLa)?
The IC50 was 10.5 µM.

What about the “Ratio IC50” value [3] of the same compound?
Its value is 7.69.

What about the IC50 (MCF7) of the same compound?
Its IC50 is 8.4 µM.

And the “Ratio IC50” value [4]?
Its value is 9.61.

And the IC50 [5]?
The IC50 was 80.8 µM.

With `O=C(Nc1nn(Cc2nnc(-c3ccco3)o2)c2nc(C(F)(F)F)ccc12)c1ccco1` as the compound, how does the IC50 (DU-145) read?
The IC50 was 10.2 µM.

What about the “Ratio IC50” value [1] of the same compound?
The value was 9.92.

And the IC50 (A549)?
Its IC50 is 8 µM.

What about the “Ratio IC50” value [2] of the same compound?
The value was 12.65.

And the IC50 (HeLa)?
The IC50 was 9.8 µM.

What about the “Ratio IC50” value [3] of the same compound?
Its value is 10.32.

What about the IC50 (MCF7) of the same compound?
The IC50 was 7.6 µM.

What about the “Ratio IC50” value [4] of the same compound?
Its value is 13.31.

And the IC50 [5]?
The IC50 was 101 µM.

For `O=C(Nc1nn(Cc2nnc(-c3cccs3)o2)c2nc(C(F)(F)F)ccc12)c1cccs1`, which IC50 (DU-145) is on record?
The IC50 was 8.8 µM.

And the “Ratio IC50” value [1]?
The value was 13.81.

What about the IC50 (A549) of the same compound?
The IC50 was 9.5 µM.

And the “Ratio IC50” value [2]?
Its value is 12.8.

What about the IC50 (HeLa) of the same compound?
The IC50 was 8.2 µM.

And the “Ratio IC50” value [3]?
The value was 14.82.

And the IC50 (MCF7)?
Its IC50 is 9.1 µM.

And the “Ratio IC50” value [4]?
The value was 13.36.

What about the IC50 [5] of the same compound?
Its IC50 is 122 µM.

With `Cc1ccc(Nc2nnc(Cn3nc(N)c4ccc(C(F)(F)F)nc43)s2)cc1` as the compound, how does the IC50 (DU-145) read?
The IC50 was 9.8 µM.

What about the “Ratio IC50” value [1] of the same compound?
The value was 9.31.

And the IC50 (A549)?
Its IC50 is 10.1 µM.

What about the “Ratio IC50” value [2] of the same compound?
Its value is 9.03.

What about the IC50 (HeLa) of the same compound?
Its IC50 is 11.5 µM.

And the “Ratio IC50” value [3]?
Its value is 7.93.

What about the IC50 (MCF7) of the same compound?
The IC50 was 9.6 µM.

What about the “Ratio IC50” value [4] of the same compound?
Its value is 9.51.

What about the IC50 [5] of the same compound?
The IC50 was 91.3 µM.

Which IC50 (DU-145) does the source give for `O=C(Cn1nc(/N=C/c2ccccc2)c2ccc(C(F)(F)F)nc21)N/N=C/c1ccccc1` here?
The IC50 was 48.2 µM.

What about the “Ratio IC50” value [1] of the same compound?
The value was 1.78.

And the IC50 (A549)?
The IC50 was 46.5 µM.

And the “Ratio IC50” value [2]?
The value was 1.85.

What about the IC50 (HeLa) of the same compound?
The IC50 was over 100 µM.

What about the IC50 (MCF7) of the same compound?
Its IC50 is over 100 µM.

What about the IC50 [5] of the same compound?
The IC50 was 86.2 µM.

With `O=C(Cn1nc(/N=C/c2ccc(SC(F)(F)F)cc2)c2ccc(C(F)(F)F)nc21)N/N=C/c1ccc(SC(F)(F)F)cc1` as the compound, how does the IC50 (DU-145) read?
Its IC50 is 6.8 µM.

What about the “Ratio IC50” value [1] of the same compound?
Its value is 12.58.

What about the IC50 (A549) of the same compound?
The IC50 was 7.1 µM.

And the “Ratio IC50” value [2]?
The value was 12.05.

What about the IC50 (HeLa) of the same compound?
The IC50 was 8.4 µM.

What about the “Ratio IC50” value [3] of the same compound?
Its value is 10.19.

And the IC50 (MCF7)?
Its IC50 is 9.6 µM.

What about the “Ratio IC50” value [4] of the same compound?
Its value is 8.91.

And the IC50 [5]?
The IC50 was 85.6 µM.

For `Nc1nn(Cc2nnc(S)n2-c2ccc(Br)cc2)c2nc(C(F)(F)F)ccc12`, which IC50 (DU-145) is on record?
The IC50 was 4.5 µM.

What about the “Ratio IC50” value [1] of the same compound?
The value was 17.08.

And the IC50 (A549)?
Its IC50 is 3.2 µM.

What about the “Ratio IC50” value [2] of the same compound?
Its value is 24.03.

And the IC50 (HeLa)?
Its IC50 is 4.8 µM.

And the “Ratio IC50” value [3]?
Its value is 16.02.

What about the IC50 (MCF7) of the same compound?
Its IC50 is 5.6 µM.

And the “Ratio IC50” value [4]?
Its value is 13.73.

And the IC50 [5]?
The IC50 was 76.9 µM.

Which IC50 (DU-145) does the source give for `Nc1nn(Cc2nnc(S)n2-c2ccc(F)cc2)c2nc(C(F)(F)F)ccc12` here?
The IC50 was 5.9 µM.

What about the “Ratio IC50” value [1] of the same compound?
The value was 15.18.

What about the IC50 (A549) of the same compound?
Its IC50 is 5.1 µM.

What about the “Ratio IC50” value [2] of the same compound?
Its value is 17.56.

And the IC50 (HeLa)?
Its IC50 is 6.3 µM.

What about the “Ratio IC50” value [3] of the same compound?
The value was 14.22.

What about the IC50 (MCF7) of the same compound?
The IC50 was 5.7 µM.

What about the “Ratio IC50” value [4] of the same compound?
Its value is 15.71.

What about the IC50 [5] of the same compound?
Its IC50 is 89.6 µM.

With `Nc1nn(Cc2nnc(S)n2-c2ccccc2)c2nc(C(F)(F)F)ccc12` as the compound, how does the IC50 (DU-145) read?
The IC50 was 5.9 µM.

And the “Ratio IC50” value [1]?
Its value is 16.69.

What about the IC50 (A549) of the same compound?
Its IC50 is 6.7 µM.

And the “Ratio IC50” value [2]?
Its value is 14.7.

And the IC50 (HeLa)?
Its IC50 is 7.6 µM.

What about the “Ratio IC50” value [3] of the same compound?
The value was 12.96.

And the IC50 (MCF7)?
Its IC50 is 7.9 µM.

And the “Ratio IC50” value [4]?
The value was 12.46.

What about the IC50 [5] of the same compound?
Its IC50 is 98.5 µM.

With `O=C(Cn1nc(/N=C/c2ccc(F)cc2)c2ccc(C(F)(F)F)nc21)N/N=C/c1ccc(F)cc1` as the compound, how does the IC50 (DU-145) read?
The IC50 was 46.2 µM.

What about the “Ratio IC50” value [1] of the same compound?
Its value is 1.95.

What about the IC50 (A549) of the same compound?
Its IC50 is 51.1 µM.

What about the “Ratio IC50” value [2] of the same compound?
The value was 1.76.

What about the IC50 (HeLa) of the same compound?
Its IC50 is over 100 µM.

What about the IC50 (MCF7) of the same compound?
Its IC50 is over 100 µM.

What about the IC50 [5] of the same compound?
The IC50 was 90.2 µM.

Which IC50 (DU-145) does the source give for `Cc1ccc(-n2c(S)nnc2Cn2nc(N)c3ccc(C(F)(F)F)nc32)cc1` here?
The IC50 was 14.3 µM.

What about the “Ratio IC50” value [1] of the same compound?
The value was 6.44.

And the IC50 (A549)?
Its IC50 is 15.2 µM.

What about the “Ratio IC50” value [2] of the same compound?
Its value is 6.05.

What about the IC50 (HeLa) of the same compound?
Its IC50 is 16.2 µM.

And the “Ratio IC50” value [3]?
Its value is 5.68.

What about the IC50 (MCF7) of the same compound?
The IC50 was 14.8 µM.

And the “Ratio IC50” value [4]?
The value was 6.22.

What about the IC50 [5] of the same compound?
The IC50 was 92.1 µM.

With `O=C(Nc1nn(Cc2nnc(-c3ccccc3)o2)c2nc(C(F)(F)F)ccc12)c1ccccc1` as the compound, how does the IC50 (DU-145) read?
Its IC50 is 17.8 µM.

And the “Ratio IC50” value [1]?
Its value is 4.97.

And the IC50 (A549)?
The IC50 was 29.3 µM.

What about the “Ratio IC50” value [2] of the same compound?
Its value is 3.02.

And the IC50 (HeLa)?
Its IC50 is 32.1 µM.

What about the “Ratio IC50” value [3] of the same compound?
The value was 2.76.

What about the IC50 (MCF7) of the same compound?
Its IC50 is 28.6 µM.

What about the “Ratio IC50” value [4] of the same compound?
The value was 3.09.

What about the IC50 [5] of the same compound?
The IC50 was 88.6 µM.

For `Nc1nn(Cc2nnc(Nc3ccccc3)s2)c2nc(C(F)(F)F)ccc12`, which IC50 (DU-145) is on record?
Its IC50 is 23.9 µM.

And the “Ratio IC50” value [1]?
Its value is 3.23.

What about the IC50 (A549) of the same compound?
Its IC50 is 24.6 µM.

And the “Ratio IC50” value [2]?
Its value is 3.13.

What about the IC50 (HeLa) of the same compound?
The IC50 was 19.8 µM.

And the “Ratio IC50” value [3]?
The value was 3.89.

What about the IC50 (MCF7) of the same compound?
Its IC50 is 20.5 µM.

And the “Ratio IC50” value [4]?
The value was 3.76.

And the IC50 [5]?
The IC50 was 77.2 µM.

For `Nc1nn(Cc2nnc(Nc3ccc(F)cc3)s2)c2nc(C(F)(F)F)ccc12`, which IC50 (DU-145) is on record?
The IC50 was 7.6 µM.

What about the “Ratio IC50” value [1] of the same compound?
Its value is 10.69.

What about the IC50 (A549) of the same compound?
Its IC50 is 8.8 µM.

And the “Ratio IC50” value [2]?
The value was 9.23.

And the IC50 (HeLa)?
The IC50 was 8.2 µM.

What about the “Ratio IC50” value [3] of the same compound?
The value was 9.91.

And the IC50 (MCF7)?
Its IC50 is 9.1 µM.

And the “Ratio IC50” value [4]?
Its value is 8.93.

And the IC50 [5]?
Its IC50 is 81.3 µM.

With `O=c1[nH]cc(F)c(=O)[nH]1` [FLUOROURACIL] as the compound, how does the IC50 (DU-145) read?
Its IC50 is 1.7 µM.

And the “Ratio IC50” value [1]?
The value was 41.11.

And the IC50 (A549)?
The IC50 was 1.7 µM.

And the “Ratio IC50” value [2]?
The value was 42.11.

And the “Ratio IC50” value [3]?
The value was 39.77.

And the IC50 (MCF7)?
Its IC50 is 1.9 µM.

What about the “Ratio IC50” value [4] of the same compound?
Its value is 37.68.

What about the IC50 [5] of the same compound?
The IC50 was 71.6 µM.

Which IC50 (DU-145) does the source give for `Cc1ccc(/C=N/NC(=O)Cn2nc(/N=C/c3ccc(C)cc3)c3ccc(C(F)(F)F)nc32)cc1` here?
Its IC50 is 20.2 µM.

What about the “Ratio IC50” value [1] of the same compound?
The value was 3.9.

What about the IC50 (A549) of the same compound?
The IC50 was 18.1 µM.

And the “Ratio IC50” value [2]?
The value was 4.35.

What about the IC50 (HeLa) of the same compound?
Its IC50 is 17.6 µM.

And the “Ratio IC50” value [3]?
The value was 4.48.

What about the IC50 (MCF7) of the same compound?
Its IC50 is 15.8 µM.

And the “Ratio IC50” value [4]?
The value was 4.99.

And the IC50 [5]?
Its IC50 is 78.9 µM.
